Results as given in patent US20180008688A1, “METHOD AND COMPOSITIONS FOR ENHANCING IMMUNOTHERAPEUTIC TREATMENT OF A CANCER” (Augusta University Research Institute, Inc., priority 2016, published 2018).
“Also recorded” adds a separate entry of the source. Where two headings read alike, the source gives them in different places.

Experiments:
[1] = test system: E.G7 tumors; assay: RIP-mOVA mice with E.G7 tumors treated with oxaliplatin with or without nutlin; format: in vivo; conditions: nutlin-3a added to oxaliplatin
Protocol: A classical model of ICD was first tested in which EL4-OVA lymphoma tumors (clone E.G7) are treated with oxaliplatin chemotherapy (Ghiringhelli et al., (2009) Nat. Med. 15: 1170-1178). E.G7 bears the same model antigen as B16-OVA (described with the RIP-mOVA model, above), so it was possible to test the effects of nutlin plus oxaliplatin in the RIP-mOVA model.

[2] = test system: B16F10 tumors; format: in vivo; conditions: for anti-tumor effect: nutlin-3a added to CTX/VO-OHpic, FIG. 8B
Protocol: In vivo tumor studies: The B16F10 and E.G7 (EL4-OVA) cell lines were obtained from ATCC. B16-OVA (B16F10 transfected with full-length chicken ovalbumin) clone MO4 was according to Falo et al. ((1995) Nat. Med. 1: 649-653). B16F10 cells expressing EGFP protein (B16-GFP cells) were derived using lentiviral transfection. Tumor implantation was performed as described (Sharma et al., (2007) J. Clin. Invest. 117: 2570-2582), using 1×10^5 cells for B16F10 and 1×10^6 cells for other cell lines (large inocula were used to ensure rapid tumor engraftment and immune suppression). […] Tumor volume was calculated from orthogonal diameters using the formula V=L×W^2×π/6. Mice received approved euthanasia when tumors reached a size of 300 mm^2 (product of orthogonal diameters); death was never used a planned endpoint in any study.
(§1) Tumor implantation was performed as described (Sharma et al., (2007) J. Clin. Invest. 117: 2570-2582). VO-OHpic was given at 10 mg/kg/day i.p., in 10% DMSO/PBS. Cyclophosphamide was given at 150 mg/kg i.p×1 dose; and oxaliplatin at 5 mg/kg i.p×1 dose. Nutlin-3a was administered daily at 10 mg/kg/day i.p. For checkpoint blockade, mice received anti-CTLA-4 plus a cocktail of antibodies against the PD-1 pathway. Vaccines and T cell adoptive transfer studies were performed as described (Sharma et al., (2015) Sci. Advances. 1: e1500845).
VO-OHpic/CTX, nutlin-3a, oxaliplatin and immunotherapy regimens: The vanadate compound VO-OHpic (Mak et al., (2010) J. Chem. Biol. 3: 157-163) inhibits PTEN activity, and this drug was used to destabilize PTEN+Tregs during chemotherapy. Like all of the available PTEN-inhibitors, VO-OHpic can also affect other phosphatases (Spinelli et al., (2015) Adv. Biol. Regul. 57: 102-111).
VO-OHpic was given at 10 mg/kg/day i.p., in 10% DMSO/PBS. Cyclophosphamide was given at 150 mg/kg i.p×1 dose. Oxaliplatin was given at 5 mg/kg i.p×1 dose. […] For checkpoint blockade, mice received anti-CTLA-4 (clone 9D9, BioXcell) plus a cocktail of antibodies against the PD-1 pathway: anti-PD-L2, clone TY25 (Yamazaki et al., (2002) J. Immunol. 169: 5538-5545); anti-PD-1, clone J43 (Agata et al., (1996) Int. Immunol. 8: 765-772); and anti-PD-L1, clone MIH7 (Tsushima et al., (2003) Eur. J. Immunol. 33: 2773-2782). A cocktail was used in order to block the PD-1 pathway as completely as possible and thus minimize any peculiarities of a single blocking antibody.

[3] = test system: E.G7 tumors; assay: E.G7/oxaliplatin model in LysMcre/p53-KO hosts with or without nutlin-3a; format: in vivo, mouse; conditions: mice lacking myeloid p53; FIG. 8D
From the text: To test whether the relevant target of nutlin in tumors was specifically the p53 expression in myeloid dendritic cells, the E.G7/oxaliplatin model in LysMcre/p53-KO hosts was used. If mice lacked the relevant p53 in tumor-associated myeloid cells, then LysMcre/p53-KO mice should lose all anti-tumor effect of nutlin. For these studies, mice received congenically-marked OT-I cells to monitor whether T cells were still rescued by IL-12 in tumors.
Mice with a nuclear-localizing Cre-recombinase knock-in replacing one copy of the Lyz2 gene (Clausen et al., (1999) Transgenic Res. 8: 265-277) (strain 004781, Jax) were crossed as heterozygotes with homozygous p53^flox/flox mice (Marino et al., (2000) Genes Dev. 14: 994-1004) (strain 008462, Jax).
as §1

[4] = test system: T cells; assay: Purified T cells activated with anti-CD3/CD28 with nutlin, IL-12, MG-132; format: cell-based, mouse
From the text: Regulation of p53 is complex, and it can be targeted by multiple pathways besides MDM2 (Chao C. C. (2015) Clin. Chim. Acta 438: 139-147). If IL-12 is rescuing T cells from nutlin, one possibility is that IL-12 might activate an alternative pathway of p53 degradation, not dependent on MDM2. To test this, purified T cells were activated (without any antigen-presenting cells or other cells) using anti-CD3/CD28 antibodies. T cells were activated in the presence or absence of nutlin with or without addition of recombinant IL-12.
Finally, to test the hypothesis that IL-12 targeted p53 for proteolytic degradation via an alternated pathway, proteasomal function was inhibited using MG-132. T cells were activated using immobilized CD3/CD28 as above. […] CFSE proliferation tracked inversely with p53 levels. […] While MG-132 affects many intracellular pathways besides p53, these findings support the basic hypothesis that IL-12 bypasses nutlin by targeting p53 for degradation via an alternative route.

[5] = nutlin-3a added to VO-OHpic+CTX
[6] = nutlin, anti-CD3/CD28 activation

## COc1ccc(C2=NC(c3ccc(Cl)cc3)C(c3ccc(Cl)cc3)N2C(=O)N2CCNC(=O)C2)c(OC(C)C)c1 (single isomer, unassigned; (-)) [nutlin-3a, (−)-4-(4,5-Bis(4-chlorophenyl)-2-(2-isopropoxy-4-methoxyphenyl)-4,5-dihydro-1H-imidazole-1-carbonyl)piperazin-2-one]
[1]
  anti-tumor activity: significantly enhancing the anti-tumor activity
  autoimmune diabetes: protected the mice from diabetes
[2]
  anti-tumor effect: maintained a prolonged anti-tumor response
[2]; listed as Nutlin-3a
  anti-tumor effect: markedly prolonged and maintained the anti-tumor effect
[2]; [5]
  Ly6c+CD103+ dendritic cells in tumors: large population
  phospho-p53-Ser15 in dendritic cells: sustained elevation
[3]
  anti-tumor effect of nutlin-3a: lost all anti-tumor effects; also recorded: lost all ability to enhance anti-tumor immunity
[4]; [6]
  T cell proliferation: suppressed proliferation of T cells
  p53 levels in activated T cells: progressively restored, and then markedly elevated
[4]; nutlin, anti-CD3/CD28 activation, listed as Nutlin
  p53 levels in activated T cells: blocked the down-regulation of p53
[4]; p53-deficient T cells
  effect of nutlin on p53-deficient T cells: no inhibitory effect
